Experimental data taken from publication PMC5052702 (Nature Communications, 2016).
Several values for one entry are separate records, joined by “and”; a condition that tells them apart may be missing. Equal values may be shown once. Read-outs that look alike come from different tables or passages of the source.

Legend:
[1] = target: T1, CVB3 3C protease (Coxsackievirus B3, UniProt P03313); assay: FRET-based enzyme activity assay (warhead activation / inhibitor kinetics); assay type: biochemical, Coxsackie virus B3; conditions: for kinact/KI: relative inactivation rate, slope of kobs against inhibitor concentration; for IC50: read-out: IC50
T1 construct: 3C protease of Coxsackie virus B3 consisting of 183 amino-acid residues; made in house; host or cells: E. coli BL21(DE3), plasmid pET-23a(+)
Description: The activity of the protease was measured by hydrolysis of the FRET-substrate N-Dabcyl-KTLEALFQ↓GPPVYE(Edans)-NH2. The peptide was purchased from Biosyntan (Berlin, Germany). Samples were irradiated with light with a wavelength of 355 nm and the emitted light at 538 nm was measured in relative fluorescence units (RFUs). An amount of 100 pmol of cleaved substrate equals 5,000 RFU.
Assay samples contained 10 μl of a 100 mM HEPES-NaOH buffer solution pH 7.5/1 mM EDTA, 10 μl enzyme solution (2 μM CVB3 3C^Pro), 10 μl of 10 μM substrate solution (both dissolved in the above buffer) and 1 μl Inhibitor and/or fragment dissolved in DMSO. For assay results of a dilution series of a mixture of 1 and 2 and comparison of reaction products in dependence of the assay solvent, see Supplementary Figs 1 and 2.
The screening procedure consisted of the following steps: 10 μl 100 mM HEPES-NaOH buffer solution pH 7.5/1 mM EDTA was placed in a cavity of the 384-well plate (polystyrene, Corning 3544). Then 10 μl of enzyme solution (40 μM CVB3 3C protease in 100 mM HEPES-NaOH buffer solution, pH 7.5/1 mM EDTA) was added and the plate was shaken for 2 min at 1,400 r.p.m. Afterwards, 0.5 μl of a DMSO solution of the electrophilic probe and 0.5 μl of a DMSO solution of the nucleophile was added, followed by 10 μl of substrate solution (10 μM in 100 mM HEPES-NaOH buffer solution, pH 7.5/1 mM EDTA). The plate was shaken again for 2 min at 1,400 r.p.m. and the generated fluorescence signal was measured with a Safire II Fluorimeter from Tecan. The electrophilic probe 1 was used at a concentration of 400 μM for the screening, which lowered the protease activity by 10–20%. Eight-hundred fifty primary amines were tested at a concentration of 320 μM and fragment 2 amplified the inhibitory activity of 1 most potently. Positive control samples contained only DMSO instead of the probe or the nucleophile. Negative control samples contained no active enzyme. An interfering fluorescent effect has not been observed.
When determining the inhibitory parameters of an inhibitor, the assay set-up was as mentioned but 1 μl DMSO solution of inhibitor was used instead of probe or nucleophile. Different concentrations of inhibitor were tested at least as duplicates and the pseudo-first-order association kinetics (kobs) were determined using GraphPad Prism. The slope of a plot of the different kobs values against the inhibitor concentration yielded kinact/KI.

[2] = target: HRV-A49 3C protease (Rhinovirus A49, UniProt A5GZE5); assay: In vitro proteolytic activity assay (HPLC, 3 h incubation); assay type: biochemical, human rhinovirus A49; conditions: for reduction of protease activity: protein inhibitor stoichiometries of 1:1 and 1:3; for IC50: fixed enzyme concentration, 3 h incubation
Description: (§1) For 12 and 14, the inhibitory activity decreased for EV-B93>PSV-1>ERBV-1>AiV-1>EV-D68>HRV-A49.
(§2) A volume of 100 μl of reaction mixture containing 1.9 μM 3C protease, 25 μM substrate peptide, 5% DMSO, buffer (30 mM Tris pH 8.0, and 50 mM NaCl or 50 mM HEPES pH 7.4 and 50 mM NaCl) and (optionally) different concentrations of inhibitor was incubated in 37 °C during 3 h. The reaction was quenched by addition of 0.5% (final concentration) TFA. Samples were analysed by HPLC on SOURCE 15RPC ST 4.6/100 column using: 2–90% linear gradient of ACN in 0.1% TFA. The 3C protease activity in the absence of inhibitor was defined as 100%. The following peptides (GL Biochem, Shanghai, China) were dissolved in DMSO at a concentration of 5 mM and used for testing 3C proteases activity (Table 3).

[3] = target: EV-B93 3C protease (Enterovirus B93 (species Enterovirus B), UniProt Q5DSM6); assay: as above; assay type: biochemical, human enterovirus B93; conditions: for reduction of protease activity: protein inhibitor stoichiometries of 1:1 and 1:3; for IC50: fixed enzyme concentration, 3 h incubation; for inhibition of the enzyme: one inhibitor equivalent
Description: as §1, §2

[4] = target: PSV-1 3C protease (Porcine sapelovirus 1, UniProt Q8JJT0); assay: as above; assay type: biochemical; conditions: for reduction of protease activity: protein inhibitor stoichiometries of 1:1 and 1:3; for IC50: fixed enzyme concentration, 3 h incubation
Description: as §1, §2

[5] = target: ERBV-1 3C protease (Equine rhinitis B virus 1, UniProt Q66776); assay: as above; assay type: biochemical; conditions: for reduction of protease activity: protein inhibitor stoichiometries of 1:1 and 1:3; for IC50: fixed enzyme concentration, 3 h incubation
Description: as §1, §2

[6] = target: T2, EV-D68 3C protease (Human enterovirus D68, UniProt Q68T42); assay: as above; assay type: biochemical; conditions: for reduction of protease activity: protein inhibitor stoichiometries of 1:1 and 1:3; for IC50: fixed enzyme concentration, 3 h incubation, read-out: IC50 HEV-D68
T2 construct: a panel of six additional rhinoviral and enteroviral 3C proteases; purchased European Virus Archive
Description: as §1, §2

[7] = target: T3, AiV-1 3C protease (Aichi virus, UniProt O91464); assay: as above; assay type: biochemical, Aichi virus 1; conditions: for reduction of protease activity: protein inhibitor stoichiometries of 1:1 and 1:3; for IC50: fixed enzyme concentration, 3 h incubation
T3 construct: a panel of six additional rhinoviral and enteroviral 3C proteases; purchased European Virus Archive
Description: as §1, §2

[8] = tested on: Trypsin; assay: Side reactivity testing against different proteases; assay type: biochemical; conditions: 50 mM MOPS-NaOH pH 8.0 / 154 mM NaCl, 57 µM Boc-LGR-AMC as substrate
Description: (§3) The four enzymes cover a broad range of S1-preferences, namely for arginine/lysine (trypsin, factor Xa), hydrophobic residues (chymotrypsin) and aspartate (caspase-3).
(§4) Supplementary Table 3. Side reactivity testing of selected compounds against different
Cpd# Structure Trypsin1) Chymotrypsin2) Human factor Xa3) Human Caspase-34)
1) in 50 mM MOPS-NaOH pH 8.0 / 154 mM NaCl with 57 µM tert. butyloxycarbonyl (Boc)-LGR-7-amino-4-
methylcoumarin (AMC) as substrate; […]

[9] = target: T4, Human Caspase-3 (Homo sapiens, UniProt P42574); assay: as above; assay type: biochemical; conditions: for IC50: 50 mM HEPES-NaOH pH 7.5, 10 µM acetyl-DEVD-AMC as substrate; for activity against caspase-3, in words: at concentrations of 100 μM
T4 sequence (P42574 29-175 limits assumed): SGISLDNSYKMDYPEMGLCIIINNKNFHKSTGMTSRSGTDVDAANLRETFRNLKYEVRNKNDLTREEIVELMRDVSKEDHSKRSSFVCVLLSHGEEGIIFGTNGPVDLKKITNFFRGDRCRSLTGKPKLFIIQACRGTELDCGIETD
T4 sequence (P42574 176-277 limits assumed): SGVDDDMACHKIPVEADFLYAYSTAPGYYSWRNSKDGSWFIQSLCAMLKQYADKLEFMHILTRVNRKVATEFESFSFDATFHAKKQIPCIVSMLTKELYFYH
Description: as §3, §4
(§5) Cpd# Structure Trypsin1) Chymotrypsin2) Human factor Xa3) Human Caspase-34) […]
4) in 50 mM HEPES-NaOH pH 7.5 / 100 mM NaCl / 1 mM EDTA / 0.1% (w/v) CHAPS / 10% (v/v) glycerol /2 mM DTT
with 10 µM acetyl-DEVD-AMC as substrate;

[10] = target: T5, CBV 3C protease (Coxsackievirus B3, UniProt P03313); assay: In vitro proteolytic activity assay (3 h incubation); assay type: biochemical, Coxsackie virus B3; conditions: fixed enzyme concentration
T5 construct: 3C protease of Coxsackie virus B3 consisting of 183 amino-acid residues; made in house; host or cells: E. coli BL21(DE3), plasmid pET-23a(+)
Description: as §2

[11] = target: Human factor Xa (Homo sapiens, UniProt P00742); assay: Side reactivity testing against different proteases; assay type: biochemical; conditions: for IC50: 50 mM MOPS-NaOH pH 8.0 / 154 mM NaCl, 114 µM Boc-LGR-AMC as substrate; for activity against factor Xa, in words: at concentrations of 100 μM
Description: as §3, §4, §5
3) in 50 mM MOPS-NaOH pH 8.0 / 154 mM NaCl with 114 µM Boc-LGR-AMC as substrate; […]

[12] = tested on: Chymotrypsin; assay: as above; assay type: biochemical; conditions: for IC50: 50 mM MOPS-NaOH pH 8.0 / 154 mM NaCl, 1.6 mM AF-AMC as substrate; for activity against chymotrypsin, in words: at concentrations of 100 μM
Description: as §3, §4, §5
2) in 50 mM MOPS-NaOH pH 8.0 / 154 mM NaCl with 1.6 mM AF-AMC as substrate. […]

Human factor Xa, sequence (P00742 235-488 limits assumed): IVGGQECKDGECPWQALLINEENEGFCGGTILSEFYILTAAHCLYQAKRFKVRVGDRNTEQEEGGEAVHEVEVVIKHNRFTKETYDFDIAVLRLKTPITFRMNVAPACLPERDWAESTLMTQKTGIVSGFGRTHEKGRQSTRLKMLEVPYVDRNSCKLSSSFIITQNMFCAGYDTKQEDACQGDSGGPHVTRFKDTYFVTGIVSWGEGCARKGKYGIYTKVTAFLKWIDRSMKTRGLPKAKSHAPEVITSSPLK
Human factor Xa, sequence (P00742 41-179 partner limits assumed): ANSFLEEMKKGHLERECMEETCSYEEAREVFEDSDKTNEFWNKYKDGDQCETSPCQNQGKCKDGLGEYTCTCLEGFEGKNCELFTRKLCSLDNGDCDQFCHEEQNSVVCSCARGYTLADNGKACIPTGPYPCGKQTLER

## Nc1cc(=O)[nH]n1C1CCCCCC1 [Compound 2, 5-amino-1-cycloheptyl-1,2-dihydropyrazol-3-one]
[1]
  inhibition of the protease, in words: virtually inactive
[1]; fragments alone or combined at the same concentrations, ligation assay
  reduction of the enzyme's activity (inhibition): no more than 10%

## CCOC(=O)[C@H]1O[C@@H]1Cc1c(N)n(C2CCCCCC2)[nH]c1=O [Compound 3]
[1]; read-out: kinact/KI
  kinact/KI: 3.7 ± 0.2 M⁻¹ s⁻¹

## CCOC(=O)[C@H]1O[C@@H]1C(=O)Nc1cc(=O)[nH]n1C1CCCCCC1 [Compound 4]
[1]
  inhibition of the protease, in words: reversible inhibitor
  IC50: 142 ± 5.6 µM

## CCOC(=O)[C@H]1O[C@H]1C(=O)Nc1cc(=O)[nH]n1C1CCCCCC1 [Compound 5]
[1]
  inhibition of the protease, in words: inactive

## O=C(NCc1cccc2ccccc12)[C@H]1O[C@@H]1C(=O)Nc1cc(=O)[nH]n1C1CCCCCC1 [Compound 6]
[1]
  inhibition of the protease, in words: inactive

## CCOC(=O)/C=C/Cc1c(N)n(C2CCCCCC2)[nH]c1=O [Compound 7]
[1]
  kinact/KI: 0.4 M⁻¹ s⁻¹ and 0.42 ± 0.01 M⁻¹ s⁻¹

## CCOC(=O)/C=C/C(=O)c1c(N)n(C2CCCCCC2)[nH]c1=O [Compound 8]
[1]
  kinact/KI: 132 M⁻¹ s⁻¹ and 131.7 ± 4.2 M⁻¹ s⁻¹

## CCOC(=O)/C=C/C(=O)Nc1cc(=O)[nH]n1C1CCCCCC1 [Compound 9]
[1]
  inhibition of the protease, in words: inactive

## CCOC(=O)/C=C/C(=O)c1c(N)n(-c2ccccc2)[nH]c1=O [Compound 10]
[1]; read-out: kinact/KI
  kinact/KI: 14.7 ± 0.9 M⁻¹ s⁻¹

## CCOC(=O)/C=C/C(=O)Oc1cc(N)n(C2CCCCCC2)n1 [Compound 11]
[1]
  IC50: 20.2 ± 1.6 µM

## CCOC(=O)/C=C\C(=O)Nc1cc(=O)[nH]n1C1CCCCCC1 [Compound 12]
[2]
  reduction of protease activity: strongly reduced the activity
[3]
  reduction of protease activity: strongly reduced the activity
[4]
  reduction of protease activity: strongly reduced the activity
[5]
  reduction of protease activity: strongly reduced the activity
[6]
  reduction of protease activity: strongly reduced the activity
[1]
  kinact/KI: 606 M⁻¹ s⁻¹ and 606.4 ± 24.9 M⁻¹ s⁻¹
[7]
  reduction of protease activity: strongly reduced the activity

## CCOC(=O)/C=C\C(N)=O [Compound 13]
[1]
  kinact/KI: 34 M⁻¹ s⁻¹ and 34.7 ± 1.5 M⁻¹ s⁻¹

## CCNC(=O)/C=C\C(=O)Nc1cc(=O)[nH]n1C1CCCCCC1 [Compound 14]
[2]
  IC50: > 20 µM
[3]
  IC50: 4 µM
  inhibition of the enzyme: fully inhibited
[4]
  IC50: 8 µM
[5]
  IC50: > 10 µM
[6]
  IC50: > 20 µM
[8]
  IC50: > 500 µM
[1]
  fold reduction of inactivation rate relative to ethyl ester 12: 10 fold
  kinact/KI: 63.1 ± 3.1 M⁻¹ s⁻¹
[1]; read-out: kinact/KI
  kinact/KI: 63 M⁻¹ s⁻¹
[7]
  IC50: 9 µM
[9]
  IC50: > 500 µM
  activity against caspase-3, in words: inactive
[10]
  IC50: 13 µM
[11]
  IC50: > 500 µM
  activity against factor Xa, in words: inactive
[12]
  IC50: > 500 µM
  activity against chymotrypsin, in words: inactive

## CCNC(=O)/C=C\C(=O)NCC [Compound 15]
[1]
  inhibition of the protease, in words: fully inactive

## CCCC(CCC)n1[nH]c(=O)cc1NC(=O)/C=C\C(=O)OCC [Compound 17]
[1]; read-out: kinact/KI
  kinact/KI: 217 ± 30.7 M⁻¹ s⁻¹

## CCOC(=O)/C=C\C(=O)Nc1cc(=O)[nH][nH]1 [Compound 18]
[1]; read-out: kinact/KI
  kinact/KI: 11.7 ± 0.5 M⁻¹ s⁻¹

## O=C(/C=C/S(=O)(=O)c1ccccc1)Nc1cc(=O)[nH]n1C1CCCCCC1 [Compound 20]
[2]
  IC50: 0.3 µM
  reduction of protease activity: strongly reduced the activity
[3]
  IC50: 0.2 µM
  inhibition of the enzyme: fully inhibited
  reduction of protease activity: strongly reduced the activity
[4]
  IC50: 0.3 µM
  reduction of protease activity: strongly reduced the activity
[5]
  IC50: 0.5 µM
  reduction of protease activity: strongly reduced the activity
[6]
  IC50: 1 µM
  reduction of protease activity: strongly reduced the activity
[8]
  IC50: > 500 µM
[1]
  kinact/KI: 1,007 M^−1 s^−1 and 1,007.7±102.2 M^−1 s^−1
[1]; read-out: kinact/KI
  kinact/KI: 1010 M⁻¹ s⁻¹
[7]
  IC50: 0.5 µM
  reduction of protease activity: strongly reduced the activity
[9]
  IC50: > 300 µM
  activity against caspase-3, in words: inactive
[10]
  IC50: 0.4 µM
[11]
  IC50: > 500 µM
  activity against factor Xa, in words: inactive
[12]
  IC50: > 500 µM
  activity against chymotrypsin, in words: inactive

## CC(C)n1[nH]c(=O)cc1NC(=O)/C=C/S(=O)(=O)c1ccccc1 [Compound 21]
[1]; read-out: kinact/KI
  kinact/KI: 542 ± 6.3 M⁻¹ s⁻¹
